In the supplement of paper PMC10307832:

Tests used:
Assay in all cases: relative viability (nuclei count vs DMSO), 5 days (fraction); higher = more cells survive
[1] = compound: CC(C)=CC[C@@H](O)C1=CC(=O)c2c(O)ccc(O)c2C1=O [Shikonin] + O=C(CCCCCCC(=O)Nc1ccccc1)NO [Vorinostat] (partner 1 µM)
Outline: (§1)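 Lung cancer cell lines were pin-tool dosed in 1536-well plates on the day after seeding, with either a lone drug or a fixed anchor-drug dose plus five library-drug doses (not always all listed) in √10 steps. Nuclei were counted on 4× images after 5 days. Relative viability is the ratio of treated-well to vehicle-well nuclei counts, with each value a median of duplicate plates.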

[2] = compound: CC(C)N(CCCNC(=O)Nc1ccc(C(C)(C)C)cc1)C[C@H]1O[C@@H](n2ccc3c(N)ncnc32)[C@H](O)[C@@H]1O + CCNC(=O)c1noc(-c2cc(C(C)C)c(O)cc2O)c1-c1ccc(CN2CCOCC2)cc1 [Luminespib] (partner 0.01 µM)
Outline: as §1

[3] = compound: CC(C)N(CCCNC(=O)Nc1ccc(C(C)(C)C)cc1)C[C@H]1O[C@@H](n2ccc3c(N)ncnc32)[C@H](O)[C@@H]1O + C[C@]1(O)C[C@@H](c2nc(-c3ccc4ccc(-c5ccccc5)nc4c3)c3c(N)nccn32)C1 [Linsitinib] (partner 1 µM)
Outline: as §1

[4] = compound: CC(C)N(CCCNC(=O)Nc1ccc(C(C)(C)C)cc1)C[C@H]1O[C@@H](n2ccc3c(N)ncnc32)[C@H](O)[C@@H]1O + O=C(c1cc(Cc2n[nH]c(=O)c3ccccc23)ccc1F)N1CCN(C(=O)C2CC2)CC1 [Olaparib] (partner 8 µM)
Outline: as §1

Row | Cell Line | relative viability ([1]; first compound 0.01 µM) | relative viability ([1]; first compound 0.1 µM) | relative viability ([1]; first compound 0.3162 µM) | relative viability ([1]; first compound 1 µM) | relative viability ([2]; first compound 0.08 µM) | relative viability ([2]; first compound 0.253 µM) | relative viability ([2]; first compound 0.8 µM) | relative viability ([2]; first compound 2.53 µM) | relative viability ([2]; first compound 8 µM) | relative viability ([3]; first compound 0.08 µM) | relative viability ([3]; first compound 0.253 µM) | relative viability ([3]; first compound 0.8 µM) | relative viability ([3]; first compound 2.53 µM) | relative viability ([3]; first compound 8 µM) | relative viability ([4]; first compound 0.08 µM) | relative viability ([4]; first compound 0.253 µM) | relative viability ([4]; first compound 0.8 µM) | relative viability ([4]; first compound 2.53 µM) | relative viability ([4]; first compound 8 µM)
1 | NCI-H322M | 0.672 | 0.911 | 0.953 | 0.978 | 0.92 | 0.759 | 0.889 | 0.76 | 0.913 | 0.863 | 0.81 | 0.877 | 0.861 | 0.894 | 0.741 | 0.797 | 0.72 | 0.765 | 0.625
2 | HCC-827 | 0.831 | 0.908 | 1.06 | 0.855 | 0.625 | 0.573 |  | 0.599 | 0.688 | 0.936 | 0.904 |  | 0.892 | 0.89 | 0.63 | 0.706 | 0.562 | 0.616 | 0.488
3 | NCI-H1975 | 0.687 | 0.785 | 0.801 | 0.64 | 0.214 | 0.154 |  | 0.213 | 0.192 | 0.842 | 0.902 | 0.744 | 0.836 | 0.878 | 0.745 | 0.82 | 0.68 | 0.649 | 0.538
4 | NCI-H1651 | 0.553 | 0.617 | 0.57 | 0.636 | 0.805 | 0.903 | 0.785 | 0.765 | 0.722 | 0.99 | 0.983 | 0.965 | 1.11 | 0.987 | 0.174 | 0.197 | 0.17 | 0.185 | 0.173
5 | NCI-H460 | 0.919 | 0.946 | 0.959 | 0.828 | 0.0341 | 0.0252 | 0.0359 | 0.0291 | 0.0376 | 0.722 | 0.775 | 0.627 | 0.66 | 0.678 | 0.391 | 0.433 | 0.388 | 0.33 | 0.345
6 | LCLC-103H | 0.791 | 0.877 | 0.801 | 0.889 | 0.765 | 0.944 | 0.883 | 0.926 | 0.93 | 1.04 | 0.887 | 0.959 | 1.04 | 0.917 | 0.734 | 0.697 | 0.699 | 0.77 | 0.775
7 | LCLC-97TM1 | 0.872 | 0.764 | 1.08 | 0.928 | 0.699 | 0.647 | 0.705 | 0.666 | 0.707 | 0.195 |  | 0.133 | 0.158 | 0.191 | 0.343 | 0.318 | 0.205 | 0.319 | 0.294
8 | PC-14 | 0.807 | 0.833 | 0.77 | 0.484 | 0.109 | 0.24 | 0.213 | 0.175 | 0.181 | 0.962 | 0.969 | 0.979 | 0.908 | 0.857 | 0.303 | 0.249 | 0.281 | 0.257 | 0.247
9 | NCI-H1355 | 0.65 | 0.623 | 0.627 | 0.604 | 0.763 | 0.614 | 0.679 | 0.609 | 0.665 | 0.751 | 0.768 |  | 0.859 | 0.843 | 0.695 | 0.776 | 0.667 | 0.754 | 0.716
10 | HOP-62 | 0.663 | 0.667 | 0.739 | 0.558 | 0.94 | 0.928 | 0.817 | 0.863 | 0.9 | 0.859 | 0.924 | 0.989 | 0.896 | 0.768 | 0.242 | 0.642 | 0.261 | 0.347 | 0.314
11 | NCI-H2087 | 0.624 | 0.742 | 0.696 | 0.689 | 0.211 | 0.198 | 0.276 | 0.16 | 0.151 | 1.06 | 1.14 | 0.998 | 1.18 | 0.965 | 0.599 | 0.694 | 0.553 | 0.667 | 0.581
